Where “and” joins values, the source holds several entries; their conditions need not be identical. Identical values can stand only once. Entries after “also recorded” stand apart in the source; their conditions may differ. Like-named read-outs stand apart in the source and are kept apart here.
Tests used:
SXA [1] = molecular target: T1, SXA (Selenomonas ruminantium, UniProt O52575); experiment: SXA-catalyzed hydrolysis of 4NP-glycoside substrates, initial rates (Methods A and B);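 for all read-outs here: initial rates from 4-nitrophenol release, tracked by absorbance over roughly 0.3 min and converted using product-minus-substrate extinction differences, in 1 mL mixtures started by enzyme addition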; type: biochemical; settings: for Km / kcat Rel. to η/ηo = 1: Exper. 2: MES pH 6.00, Method B
Procedure: (§1) Two methods were employed for determining initial rates. […] Initial rates were calculated from fitting the absorbance readings versus time to a line (minimum of 4 points per reaction progression) and by using an extinction coefficient of 17.4 mM^−1 cm^−1. In Method B (continuous monitoring), temperature-equilibrated reactions (1 mL) were monitored at 380 nm (for pH values below 6) or 400 nm (for pH values of 6 and above). Reactions were generally monitored 0.3 min for initial rate determinations. Delta extinction coefficients (product-substrate) used for molar conversion were determined by subtracting the absorbance of substrate (at pH 5 so even very minor contaminating 4NP would not contribute) from the absorbance of 4NP for each reaction condition. […] The concentration of 4NP substrates was determined by incubating the substrate with excess enzyme until an end point was reached, adding an aliquot (0.01 to 0.1 mL) to 0.1 M NaOH, recording the absorbance at 400 nm and using the extinction coefficient of 18.3 cm^−1mM^−1. Unless indicated otherwise, for both Methods A and B, reactions were initiated by adding a small aliquot of enzyme (generally 7 μl of enzyme diluted into 10 mM sodium phosphate, pH 7.0, and incubated on wet ice or at ˜25° C.) to the 1-mL, temperature-equilibrated (25° C.) reaction mixtures. For pH studies, buffers of constant ionic strength (I=0.3 M), adjusted with NaCl, were used as indicated: 100 mM succinate-NaOH (pH 4.3-6), 100 mM sodium phosphate (pH 6-8), 30 mM sodium pyrophosphate (pH 8-9), glycine-NaOH (pH 9) and glycylglycine-NaOH (pH 9).

[2] = molecular target: T2, Selenomonas ruminantium GA192 β-D-xylosidase (SXA), wild type, SEQ ID NO: 2 (Pseudoselenomonas ruminantium, UniProt O52575); experiment: Steady-state kinetics of SXA with 4NP-glycosides (Example 1, Methods A and B)
Procedure: Kinetics with 4NP Substrates
as §1

SXA [3] = molecular target: T1, SXA; experiment: biochemical; settings: for Km: read-out: Km^4NPA, pH 5.3, 25° C.; for Ki: Ki^D-xylose, inhibition of SXA-catalyzed hydrolysis of 4NPA
[4] = molecular target: Selenomonas ruminantium GA192 β-D-xylosidase (SXA, parent SEQ ID NO: 2) variant E186A (Pseudoselenomonas ruminantium, UniProt O52575, E186A); experiment: Steady-state kinetics of SXA mutant E186A with 4NP substrates
Procedure: (§2) Site-directed mutagenesis was performed using the QuikChange site-directed mutagenesis kit (Stratagene) according the manufacturer's instructions. […] Complete sequences were determined on a 3700 sequencer (Applied Biosystems) using T7 promoter and specific primers to confirm that only the intended mutations had been introduced. Lasergene software (DNAStar) was used to analyze the sequence data. pSRA1 and its mutated plasmids were used for the transformation of E. coli BL21(DE3). Transformants were inoculated to 50 mL Luria-Bertani (LB) broth supplemented with 50 mg ampicillin/mL and the flask was shaken overnight at 250 rpm and 37° C. Twenty mL of the overnight culture were transferred to a 2.8-liter baffled flask containing 1.0 liter SOB medium [2.0% tryptone, 0.5% yeast extract, 0.05% NaCl, 0.0186% KCl (all in wt/vol) and 10 mM MgSO4] supplemented with 50 mg ampicillin/mL. The culture was shaken at 250 rpm and 37° C. […] Cells were harvested by centrifugation and cell pellets were stored at −80° C. until use.
(§3) Initial purification steps and diafiltration steps were performed at 4° C. Chromatography was at room temperature (˜24° C.). Cells were thawed, suspended in 40 mL of 50 mM Tris-HCl, pH 7.5 (Buffer A) containing Complete protease inhibitor cocktail (Roche) and disrupted by sonication. Following centrifugation, the supernatant was brought to 30% saturation with respect to ammonium sulfate and centrifuged. […] The column was washed until absorbance at 280 nm of the eluate became minimal (˜200 mL) and developed with a 500-mL linear gradient (Buffer A+30% saturated ammonium sulfate to Buffer A).
(§4) Two methods were employed for determining initial rates. […] Initial rates were calculated from fitting the absorbance readings versus time to a line (minimum of 4 points per reaction progression) and by using an extinction coefficient of 17.4 mM^−1 cm^−1. […] The concentration of 4NP substrates was determined by incubating the substrate with excess enzyme until an end point was reached, adding an aliquot (0.01 to 0.1 mL) to 0.1 M NaOH, recording the absorbance at 400 nm and using the extinction coefficient of 18.3 cm^−1mM^−1. Unless indicated otherwise, for both Methods A and B, reactions were initiated by adding a small aliquot of enzyme (generally 7 μl of enzyme diluted into 10 mM sodium phosphate, pH 7.0, and incubated on wet ice or at ˜25° C.) to the 1-mL, temperature-equilibrated (25° C.) reaction mixtures. For pH studies, buffers of constant ionic strength (I=0.3 M), adjusted with NaCl, were used as indicated: 100 mM succinate-NaOH (pH 4.3-6), 100 mM sodium phosphate (pH 6-8), 30 mM sodium pyrophosphate (pH 8-9), glycine-NaOH (pH 9) and glycylglycine-NaOH (pH 9).

[5] = molecular target: Selenomonas ruminantium GA192 β-D-xylosidase (SXA, parent SEQ ID NO: 2) variant D14A (Pseudoselenomonas ruminantium, UniProt O52575, D14A); experiment: Steady-state kinetics of SXA mutant D14A with 4NP substrates
Procedure: as §2, §3, §4

[6] = molecular target: T2, Selenomonas ruminantium GA192 β-D-xylosidase (SXA), wild type, SEQ ID NO: 2; experiment: Steady-state kinetics of SXA with 4NPX2, A2 and X2-X6 by HPLC (Example 1)
Procedure: (§5) Samples (25 μL) were injected onto the column equilibrated with 0.1 M NaOH and developed with a 15-min linear gradient (0.1 M NaOH to 15 mM sodium acetate) at ˜25° C. and a flow rate of 1 mL min^−1.
(§6) Before (time=0 min) and after (time=1-6 min) initiating reactions with enzyme (7 μL), samples (0.05-0.1 mL) were removed and quenched with an equal volume of 0.5 M acetic acid and frozen. Following lyophilization, samples were dissolved in H2O and analyzed by HPLC. […] Results from two replicate reactions were combined to provide data points for the progress curves.
(§7) Before and after addition of enzyme (7 μL), 25-μl aliquots of the reaction mixtures were directly injected onto the HPLC column for quantification of product L-arabinose.
(§8) Quenched samples were analyzed by HPLC for D-xylose. Initial rates were determined from linear regressions of [D-xylose] produced versus reaction time. […] Four 1-mL replicate reactions were conducted to supply data points for the progress curves. Two parallel reactions were conducted, under the same conditions with the same reaction components, the absorbance at 400 nm was continuously monitored (20 min) for 4NP production, and the absorbance values were converted to mM 4NP concentrations by using a delta extinction coefficient (product-substrate) of 8.22 mM^−1 cm^−1.

SXA [7] = molecular target: T1, SXA; settings: pH 5.3 and 25° C., relative to A2
Procedure: as §5, §6, §7

SXA [8] = molecular target: T1, SXA; settings: 100 mM sodium phosphate, pH 7.0, 25° C., not well determined
Procedure: as §5, §8

SXA [9] = molecular target: T1, SXA; experiment: biochemical; settings: inhibition of SXA-catalyzed hydrolysis of 4NPX, I=0.3 M, competitive
Procedure: Reactions were monitored continuously for 0.3 min at 400 nm to determine initial rates. Initial-rate data were fitted to equation 6, where v is the initial rate, kcat is the rate of the reaction when saturated with substrate, S is the substrate concentration, Km is the Michaelis constant, I is the inhibitor concentration (e.g., D-glucose), and Ki is the dissociation constant of inhibitor from the enzyme-inhibitor complex.

SXA [10] = molecular target: T1, SXA; settings: pH 5.3, 55° C.; for KI (inactivation): read-out: Ki, dissociation constant from protection against thermal inactivation, kobs fitted to equation 4
Procedure: Initial rates were determined by monitoring reactions continuously at 400 nM for 0.3 min. […] Relative activity remaining data were fitted to equation 3, which describes a first order decay: A is the relative activity remaining at varied times of preincubation, A0 is the relative activity remaining at time zero of the preincubation, kobs is the first order rate constant, and t is the time of preincubation. Apparent affinities for D-xylose and D-glucose were determined by fitting kobs values from the monosaccharide protection studies to equation 4 where kobs is the observed first order rate constant for the decay, k0 is the first order rate constant in the absence of ligand (e.g., D-xylose), I is the ligand concentration in the preincubation mixture, and Ki is the dissociation constant of ligand from the enzyme-ligand complex.
Ligand protection studies contained varied concentrations of D-xylose or D-glucose in the pH 5.3 preincubation buffer at 55° C.

SXA [11] = molecular target: T1, SXA; experiment: pH stability of SXA and protection from low pH inactivation at pH 4.0 by monosaccharides; settings: pH 4.0, 25° C.
Procedure: Buffers of constant ionic strength (I=0.3 M), adjusted with NaCl, were used as indicated: 100 mM succinate-NaOH (pH 3.5-6), 100 mM sodium phosphate (pH 6-8), 30 mM sodium pyrophosphate (pH 8-9), and 100 mM glycine-NaOH (pH 9-10). […] Initial rates were determined by monitoring reactions continuously at 400 nM for 0.3 min. […] Relative activity remaining data were fitted to equation 3, which describes a first order decay: A is the relative activity remaining at varied times of preincubation, A0 is the relative activity remaining at time zero of the preincubation, kobs is the first order rate constant, and t is the time of preincubation. Apparent affinities for D-xylose and D-glucose were determined by fitting kobs values from the monosaccharide protection studies to equation 4 where kobs is the observed first order rate constant for the decay, k0 is the first order rate constant in the absence of ligand (e.g., D-xylose), I is the ligand concentration in the preincubation mixture, and Ki is the dissociation constant of ligand from the enzyme-ligand complex.

[12] = molecular target: β-D-xylosidase/α-L-arabinofuranosidase (Selenomonas ruminantium, UniProt O52575); experiment: Inhibition of the enzyme by monosaccharides and ethanol (detailed description); type: biochemical, Selenomonas ruminantium GA192
SXA [13] = molecular target: T1, SXA; experiment: biochemical; settings: pH 5.3, 25° C.
[14] = I=0.3 M, 25° C., Eq. 7 (4NPX), Eq. 5 (4NPA)
[15] = 100 mM succinate-NaOH, pH 5.3, 25° C, Method A

O=[N+]([O-])c1ccc(O[C@@H]2O[C@@H](CO)[C@H](O)[C@H]2O)cc1 [4NPA, 4-nitrophenyl-α-L-arabinofuranoside]
pH-independent kcat/Km (SXA [1]): 5.10±0.07 s^−1 mM^−1
Relative Rate (SXA [1]; 5 mM 4NP glycoside, 100 mM succinate-NaOH, pH 5.3, 25° C., Method A, initial rate relative to 4NPX): 0.101 ± 0.003
pH-independent 1/Km (SXA [1]; 1/Km versus pH, Eq. 4 (4NPX), Eq. 5 (4NPA)): 1.60±0.02 mM^−1
Km (SXA [1]; η/ηo 1.00): 745 ± 36 µM
kcat Rel. to η/ηo = 1 (SXA [1]; η/ηo 1.00): 1.00
Km (SXA [1]; η/ηo 6.85 (50% sucrose)): 754 ± 101 µM
kcat Rel. to η/ηo = 1 (SXA [1]; η/ηo 6.85 (50% sucrose)): 0.960 ± 0.040
pKa of kcat versus pH (single group) (SXA [1]; I=0.3 M, 25° C., Eq. 4): 3.6 and 3.64±0.10
pKa1 of kcat/Km versus pH (SXA [1]; I=0.3 M, 25° C., Eq. 5): ~5.0 and 5.06±0.02
pKa2 of kcat/Km versus pH (SXA [1]; I=0.3 M, 25° C., Eq. 5): 7.20±0.02
pKa1 of 1/Km versus pH (SXA [1]; [14]): 5.00±0.03
pKa2 of 1/Km versus pH (SXA [1]; [14]): 7.16±0.03
binding to dianionic SXA (D14^−E186^−) (SXA [1]; from pH dependencies): weakly, if at all; also recorded: no affinity
kcat ([2]; 100 mM MES-NaOH, pH 6.00, 25° C, Method B, 50% sucrose, η/ηo 6.85): 2.87 ± 0.12 s⁻¹
kcat ([2]; 100 mM MES-NaOH, pH 6.00, 25° C, Method B, η/ηo 1.00): 2.99 ± 0.05 s⁻¹
kcat ([2]; 100 mM succinate-NaOH, pH 5.3, 25° C, Method A, no sucrose): 2.68 ± 0.06 s⁻¹
affinity of dianionic SXA (D14^−E186^−), higher than that of monoanionic SXA (D14^−E186^H) ([2]; from pH dependence of 1/Km): no affinity
kcat Rel. to η/ηo = 1 ([2]; pH 6.00, η/ηo 6.85): 0.960 ± 0.040
Km (SXA [3]; FIG. 22A experiment (D-xylose α:β 6:1)): 880 ± 130 µM
Km (SXA [3]; FIG. 22B experiment (D-xylose α:β 1:2.5)): 900 ± 13 µM
kcat [4, 15]: 0.000239 ± 0.000008 s⁻¹
factor by which kcat is degraded vs wild type ([4]; pH 5.3, 25° C.): 11000
kcat [5, 15]: 0.000936 ± 0.000012 s⁻¹
factor by which kcat is degraded vs wild type ([5]; pH 5.3, 25° C.): 3000
kcat factor between 4NPA and A2 ([6]; 4NPA larger / A2 reduced): 36 fold
relative kcat value ([6]; pH 5.3, 25° C, A2 = 1): 34
relative kcat values (SXA [7]): 34

O=[N+]([O-])c1ccc(O[C@@H]2OC[C@@H](O[C@@H]3OC[C@@H](O)[C@H](O)[C@H]3O)[C@H](O)[C@H]2O)cc1 [4NPX2, 4-Nitrophenyl-β-D-xylobioside]
kcat (4NPX2 to 4NPX + D-xylose) (SXA [8]): 50.5 ± 25.7 s⁻¹
Km (SXA [8]; read-out: Km (4NPX2 to 4NPX + D-xylose)): 690 ± 430 µM

O=C[C@H](O)[C@@H](O)[C@H](O)[C@H](O)CO [D-glucose]
Ki (SXA [9]; pH 5.3, 25° C.): 79 ± 2.3 mM
Ki (SXA [9]; pH 7.0, 25° C.): 34.5 ± 0.7 mM
Ki (SXA [9]; pH 9.0, 25° C.): 18.7 ± 0.6 mM
kobs of SXA inactivation in presence of monosaccharide (SXA [10]; 93.5 mM): 0.00949 ± 0.00069 min⁻¹
kobs of SXA inactivation in presence of monosaccharide (SXA [10]; 187 mM): 0.00588 ± 0.00077 min⁻¹
kobs of SXA inactivation in presence of monosaccharide (SXA [10]; 280 mM): 0.00445 ± 0.00081 min⁻¹
kobs of SXA inactivation in presence of monosaccharide (SXA [10]; 374 mM): 0.00336 ± 0.00095 min⁻¹
KI (inactivation) (SXA [10]): 56.1 ± 0.8 mM
kobs of SXA inactivation in presence of monosaccharide (SXA [11]; 234 mM): 0.0210 ± 0.0016 min⁻¹
kobs of SXA inactivation in presence of monosaccharide (SXA [11]; 467 mM): 0.0124 ± 0.0007 min⁻¹
Ki [12]: 27 ± 0.4 mM

O=C[C@H](O)[C@@H](O)[C@H](O)CO [D-xylose]
Ki (SXA [1]; read-out: Ki(xylose)): 7.4 mM
Ki (SXA [3]; D-xylose α:β 1:2.5, pH 7.0 (100 mM sodium phosphate, I=0.3 M), 25° C.): 5.15 ± 0.08 mM
Ki (SXA [3]; D-xylose α:β 6:1, pH 7.0 (100 mM sodium phosphate, I=0.3 M), 25° C.): 4.97 ± 0.05 mM
Ki (SXA [3]; D-xylose α:β ratio of 1:2.5, pH 5.3, 25° C., competitive): 11.8 ± 0.3 mM
Ki (SXA [3]; D-xylose α:β ratio of 6:1, pH 5.3, 25° C., competitive): 11.9 ± 0.3 mM
Ki (SXA [13]; Ki^D-xylose, inhibition of SXA-catalyzed hydrolysis of 4NPX, Eq. 3 noncompetitive (mixed), D-xylose α:β 1:2.5): 9.63 ± 0.3 mM
Ki (SXA [13]; Kis^D-xylose·4NPX, Eq. 3): 15.9 ± 2.1 mM
Ki (SXA [9]; pH 4.3, 25° C.): 43.5 ± 1.1 mM
Ki (SXA [9]; pH 5.3, 25° C.): 7.62 ± 0.26 mM
Ki (SXA [9]; pH 7.0, 25° C.): 3.82 ± 0.06 mM
Ki (SXA [9]; pH 9.0, 25° C.): 3.21 ± 0.14 mM
kobs of SXA inactivation in presence of monosaccharide (SXA [10]; 18.7 mM): 0.0132 ± 0.0010 min⁻¹
kobs of SXA inactivation in presence of monosaccharide (SXA [10]; 46.7 mM): 0.00649 ± 0.00087 min⁻¹
kobs of SXA inactivation in presence of monosaccharide (SXA [10]; 93.5 mM): 0.00326 ± 0.00056 min⁻¹
kobs of SXA inactivation in presence of monosaccharide (SXA [10]; 280 mM): 0.000917 ± 0.00033 min⁻¹
KI (inactivation) (SXA [10]): 17.6 ± 1.8 mM
kobs of SXA inactivation in presence of monosaccharide (SXA [11]; 46.7 mM): 0.0335 ± 0.0008 min⁻¹
kobs of SXA inactivation in presence of monosaccharide (SXA [11]; 93.5 mM): 0.0186 ± 0.0004 min⁻¹
kobs of SXA inactivation in presence of monosaccharide (SXA [11]; 280 mM): 0.00614 ± 0.00036 min⁻¹
KI (inactivation) (SXA [11]; read-out: Ki, dissociation constant from protection against low pH inactivation, kobs fitted to equation 4): 31.7 ± 2.8 mM
Ki ([12]; read-out: Ki): 4.2 ± 0.1 mM

O=C[C@H](O)[C@@H](O)[C@@H](O)CO [L-arabinose]
Ki ([12]; read-out: Ki): 20 ± 0.5 mM

— patent US7993884B2, “Beta-xylosidase for conversion of plant cell wall carbohydrates to simple sugars” (The United States of America as represented by the …, priority 2006, dated 2011)
